Consider 3 substances from patent publication US7674771B2, “Antimicrobial peptides and utilization of the same” (Toagosei Co., Ltd, priority 2003, dated 2010).

For experiment [1], the system named is Aspergillus niger IFO 6341. Format: cell-based. On the procedure:
(§1) Antimicrobial activity against fungi (Aspergillus niger IFO 6341) of the antimicrobial peptides related to the present invention was tested according to a general antimycotic susceptibility test as follows.
More specifically, a slant or plate medium (“potato dextrose agar” medium manufactured by DIFCO was used typically) adhered with spores (conidia) was prepared in advance, and A. niger (IFO 6341; JIS test strain) were gathered from the medium by scratching the medium surface 4 to 5 times from bottom up with a 1 μL disposable loop and suspended in 25 mL of PBS (free of Mg, Ca) solution containing 0.05% of surfactant (Tween® 80). Thereafter, pipetting was performed using a measuring pipette or the like such that clusters of black spores disappeared completely. The spore concentration of the spore suspension prepared by such method was determined using a hemocytometer while the above-described surfactant containing PBS solution was being diluted accordingly, thereby deriving a spore suspension having a spore concentration of approximately 2.5×10^5 spores/mL.
At the same time, the above-described two polypeptides (samples 1, 3) and benzalkonium chloride serving as a comparison for antimycotic activity were dissolved in 10 mM of HEPES buffer (pH7.0) respectively to prepare stock solutions with a 2.0 mg/mL drug concentration. These were sequentially diluted to prepare various kinds of test drugs with drug (each polypeptide or benzalkonium chloride) concentrations of 400, 200, 100, 50, 25, 5 and 0.5 μg/mL.
A spore germination inhibition test and a spore growth inhibition test were performed using the above-prepared drugs and spore suspension as follows.
First, each of the above-described drugs was fed to the 96-well microplate at 40 μL a time for the spore germination inhibition test. The surplus drugs were stored in a refrigerator (4° C.) to be used for the spore growth inhibition test to be perform at a later date.
(§2) Next, a test fungus suspension was prepared by adding, with respect to 10 part by mass of the above-described spore suspension, 2 parts by mass of Alamar Blue fluorescence reagent (product of Wako Pure Chemical Industries, Ltd.) and 8 parts by mass of RPMI1640 medium containing 0.165M of MOPS, which was prepared by dissolving 5.2 g of RPMI1640 (product of Irvine Scientific) and 1.0 g of NaHCO3 in 450 mL of sterile distilled water and thereafter adding 17.12 g of MOPS and stirring, and adjusting the pH value to 7.0 by adding NaOH, and then filling up to 500 mL by adding sterile distilled water. Then, the fungus suspension was fed at 160 μL a time to the wells in which the above-described drugs were added. In addition, empty wells in which no drug was added were also fed at 160 μL a time for spore growth inhibition test. After feeding, it was cultured under a humid environment for 16 hours in an incubator at 30° C.
Twenty-four hours and 48 hours after the beginning of culturing, the colour of the mediums in the wells used for spore germination inhibition test and the wells for spore growth inhibition test were observed. Here, those in which the Alamar Blue included within the medium remain blue (oxidized form) were evaluated as positive of antimicrobial activity positive, and those that are pink (reduced form) were evaluated as negative of antimicrobial activity. Moreover, the smallest drug concentration recognized as oxidized form (blue color) was served as MIC (minimum growth inhibitory concentration) in the spore germination inhibition test and the spore growth inhibition test related to the present example.

Experiment [2] concerns Aspergillus niger IFO 6341. It counts as cell-based. On the procedure:
as §1
More specifically, a slant or plate medium (“potato dextrose agar” medium manufactured by DIFCO was used typically) adhered with spores (conidia) was prepared in advance, and A. niger (IFO 6341; JIS test strain) were gathered from the medium by scratching the medium surface 4 to 5 times from bottom up with a 1 μL disposable loop and suspended in 25 mL of PBS (free of Mg, Ca) solution containing 0.05% of surfactant (Tween® 80). Thereafter, pipetting was performed using a measuring pipette or the like such that clusters of black spores disappeared completely. The spore concentration of the spore suspension prepared by such method was determined using a hemocytometer while the above-described surfactant containing PBS solution was being diluted accordingly, thereby deriving a spore suspension having a spore concentration of approximately 2.5×10^5 spores/mL. […]
as §2, with “Then, the fungus suspension was fed at 160 μL a time to the wells in which the above-described drugs were added. In addition, empty wells in which no drug was added were also fed at 160 μL a time for spore growth inhibition test. After feeding, it was cultured under a humid environment for 16 hours in an incubator at 30° C.” left out
Sixteen hours after the beginning of culturing, the plate was retrieve from the incubator, and the presence of generation (growth) of mycelia in each well (well that had already been fed exclusively by the above-described test drug) used for spore growth inhibition test was evaluated with a microscope. […]
The source holds these as a separate data set.

The subject of another experiment is S. aureus. It counts as cell-based, Staphylococcus aureus. The procedure:
(§3) First, a drug (synthesized polypeptide) solution having a concentration of 40 times of the highest test concentration was prepared using sterile distilled water, and liquid-bouillon mediums (more specifically, “Mueller Hinton Broth” manufactured by DIFCO) including cation and having drug concentrations of 100, 50, 25, 12.5, 6.3, 3.1, 1.6 and 0.8 μM were respectively produced. The cation included was prepared as follows: dissolving 3.68 g of CaCl2.2H2O in 100 mL of purified water (10 mg.Ca^2+/mL), and thereafter adding 500 μL thereof into 100 mL of Mueller Hinton Broth; and dissolving 8.36 g of MgCl2.6H2O in 100 mL of purified water (10 mg.Mg^2+/mL), and thereafter adding 250 μL thereof into 100 mL of Mueller Hinton Broth. Thereafter, the produced liquid-bouillon mediums including the drug of each concentration were then fed to the 96-well microplate at […] a time.
(§4) At the same time, test bacteria cultured for 18 hours at 37° C. on an agar plate (“Muller Hinton Agar” manufactured by DIFCO) were gathered by scratching with a loop, and then suspended in a sterilized physiological saline. Bacterial suspension 5 μL prepared at an equivalent of 2×10^7 cells/mL was respectively inoculated (number of bacteria to be tested: approximately 1×10^6 cells/mL) onto the drug solution and fed to each well of the above-described microplate. After inoculation, the microplate was then incubated in an incubator at 37° C., and the presence of bacteria was evaluated based on the turbidity 24 hours later. The minimum drug concentration (polypeptide concentration), in which an increased in turbidity caused by bacteria was not detected at the time of measurement, was defined as MIC (minimum inhibitory concentration) (unit: μM) in the present embodiment. In addition, MIC were determined in the same manner using polymyxin B as a comparison.
Next, the antimicrobial activities (MIC) against gram-positive bacteria (S. aureus) in the presence of serum were tested with the same method as Example 2. […] Thereafter, the produced liquid-bouillon mediums including the drug and the serum of each concentration were then fed to the 96-well microplate at […] a time, and MIC were determined by the method same as Example 2. Sample X in the table is a mixture of sample 1 and sample 16 based on a mass ratio of 1:1. “-” in the table indicate “untested”.

For experiment [3], the system named is Staphylococcus aureus IFO 12732. Format: cell-based. The following applies: IFO 12732, 24 h. On the procedure: (§5) Regarding the antimicrobial peptide (samples 1 to 20) related to the present invention, the antimicrobial activities (minimum inhibitory concentration: MIC) with respect to gram-negative bacteria (Escherichia coli IFO 3972) and gram-positive bacteria (Staphylococcus aureus IFO 12732) were determined by a liquid medium dilution technique using a 96-well microplate.
as §3, §4

Experiment [4] concerns Escherichia coli IFO 3972. Nature of the experiment: MIC by liquid medium dilution technique, 96-well microplate, gram-negative bacteria. The following applies: for Antimicrobial Activities (MIC) E. coli: IFO 3972, 24 h. It counts as cell-based. On the procedure:
as §5, §3, §4

Like-named read-outs stand apart in the source and are kept apart here.

Consider “benzalkonium chloride [reference compound]”, for which, in experiment [1] (after 24 hours), the “MIC against A. niger, spore germination inhibition test after 24 hours” value was 25 µg/mL. Moreover, in experiment [1] (after 48 hours), the “MIC against A. niger, spore germination inhibition test after 48 hours” value is 25 µg/mL. For the same substance, the “MIC against A. niger, spore growth inhibition test after 24 hours” value in experiment [2] (after 24 hours) was 25 µg/mL.
Regarding “H-RKKKRKVLMWWMLR-NH2 [sample 1, RKKKRKVLMWWMLR-CONH2]”, in the experiment with S. aureus, the “Antimicrobial Activities (MIC) against S. aureus, horse serum concentration 10%” value was determined as 3.1 µM; the “Antimicrobial Activities (MIC) against S. aureus, horse serum concentration 20%” value turned out to be 3.1 µM; the “Antimicrobial Activities (MIC) against S. aureus, horse serum concentration 50%” value was 3.1 µM. Further, the “MIC against A. niger, spore germination inhibition test after 24 hours” value in experiment [1] (IFO 6341, 24 h) worked out at 50 µg/mL. The “MIC against A. niger, spore germination inhibition test after 48 hours” value in experiment [1] (IFO 6341, 48 h) is 50 µg/mL. Also, the “Antimicrobial Activities (MIC) S. aureus” value in experiment [3] came to 3.1 µM. Moreover, in experiment [4], the “Antimicrobial Activities (MIC) E. coli” value is 6.3 µM. Besides, the “antimicrobial activity against E. coli, in words” value in experiment [4] (comparison stated in text on Table 2) was “higher antimicrobial activities”. Also, in experiment [2] (IFO 6341, 24 h), the “MIC against A. niger, spore growth inhibition test after 24 hours” value worked out at 100 µg/mL.
For “H-RIRKKLRLMWWML-NH2 [sample 3, RIRKKLRLMWWML-CONH2]”, the “Antimicrobial Activities (MIC) against S. aureus, horse serum concentration 10%” value with S. aureus worked out at 3.1 µM. Besides, the “MIC against A. niger, spore germination inhibition test after 24 hours” value in experiment [1] (IFO 6341, 24 h) was determined as 100 µg/mL. In addition, the “MIC against A. niger, spore germination inhibition test after 48 hours” value in experiment [1] (IFO 6341, 48 h) was 100 µg/mL. Also, the “Antimicrobial Activities (MIC) S. aureus” value in experiment [3] was determined as 3.1 µM. Further, the “Antimicrobial Activities (MIC) E. coli” value in experiment [4] was 6.3 µM. In addition, the “MIC against A. niger, spore growth inhibition test after 24 hours” value in experiment [2] (IFO 6341, 24 h) was determined as 100 µg/mL.
